Data as given in patent US5286733A, “Substituted 3-piperidinealkanoates and alkanones and compositions and method of use thereof” (Sterling Winthrop Inc., priority 1992, dated 1994).
Like-named read-outs stand apart in the source and are kept apart here.

Target: T1, sigma receptors (Cavia porcellus, UniProt Q60492)
T1 construct: Brain tissue was prepared from male Hartley guinea pigs; tissue Hazelton Labs, Denver, Pa; (animals); host or cells: guinea pig brain membranes
Experiment: sigma receptor binding activity, [3H]-(+)-pentazocine binding to guinea pig brain membranes
Parameters: species or system male Hartley guinea pigs
Details: for inhibition at 10 µM: read-out: Percent Inhibition (of [3H]-(+)-pentazocine binding)
Experimental: Brain tissue was prepared from male Hartley guinea pigs (Hazelton Labs, Denver, Pa.) which were anesthetized with CO2 and sacrificed by decapitation. All animal care and use procedures were in accord with the "Guide for the Care and Use of Laboratory Animals" (NIH Publ. No 86-23, 1985). Homogenization was performed in 10 volumes (wt/vol) of 0.32M sucrose with a Brinkmann Polytron at setting 5, 30 sec. The homogenate was centrifuged at 900 x g for 10 min at 4° C., and the supernatant was collected and centrifuged at 22,000 x g for 20 min at 4° C. The pellet was resuspended in 10 volumes of Tris-HCl buffer (50 mM, pH 7.4), incubated at 37° C. for 30 min, and centrifuged at 22,000 x g for 20 min at 4° C. Following this, the pellet was resuspended in Tris buffer and frozen in 5-10 mL aliquots corresponding to a tissue concentration of 100 mg/mL, at -70° C. Binding characteristics of the membranes were stable for at least one month when stored at -70° C.
On the day of the assay, membrane aliquots were thawed, resuspended in fresh Tris-HCl buffer and stored on ice until use. Each assay tube contained 100 μL of [3H]-(+)-pentazocine at a final concentration of approximately 0.5 nM, 100 μL of various concentrations of the compounds of interest, 500 μL of the tissue suspension and 300 μL of buffer to a final assay volume of 1 mL and a final tissue concentration of approximately 8 mg/tube, corresponding to approximately 0.15 mg protein/tube. Nonspecific binding was defined by addition of a final concentration of 1 μM haloperidol to blank tubes. All tubes were incubated at 37° C. for 150 min before termination of the reaction by rapid filtration over Whatman GF/B glass fiber filters that were presoaked in a solution of 0.5% polyethyleneimine for at least 1 hr prior to use. Filters were washed with three 4 ml volumes of cold Tris-HCl buffer.
Following addition of scintillation cocktail, samples were allowed to equilibrate for at least 4 hr. The amount of bound radioactivity was determined by liquid scintillation spectrometry using a Beckman LS 5000 TA liquid scintillation counter with an efficiency for tritium of approximately 60%. The results are reported as a percent (%) inhibition of binding at 10 μM.
Scatchard parameters and inhibition constants (Ki values) for the binding of test compounds were also calculated using the EBDA/LIGAND program (McPherson, J. Pharmacol. Meth. 1985, 14, 213-228), purchased from Elsevier/Biosoft, Inc. The Ki values are expressed as the mean ±SEM of at least three separate determinations performed in triplicate.

[1] = at 10 μM, guinea pig brain membranes, approximately 0.5 nM [3H]-(+)-pentazocine, 37° C., 150 min

T1 sequence (Q60492 whole entry): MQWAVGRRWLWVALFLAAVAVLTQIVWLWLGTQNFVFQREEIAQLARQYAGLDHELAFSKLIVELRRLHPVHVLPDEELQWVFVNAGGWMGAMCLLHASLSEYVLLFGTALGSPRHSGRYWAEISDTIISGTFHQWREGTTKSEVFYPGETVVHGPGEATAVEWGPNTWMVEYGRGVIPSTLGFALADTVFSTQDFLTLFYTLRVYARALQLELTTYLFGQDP

Row | inhibition at 10 µM [1] | Ki (mean ±SEM of at least three separate determinations performed in triplicate, [3H]-(+)-pentazocine, EBDA/LIGAND) | SMILES | inhibition at 10 µM
1 | 70% |  | CCOC(=O)CC[C@]1(C)[C@H](C)CCN(C)[C@H]1C (relative stereo) [Example 1, ethyl 3-(1,2,3,4-tetramethyl-3-piperidine)propanoate] | 
2 |  |  | C[C@@H]1CCN(C)[C@@H](C)[C@]1(C)CCC(=O)CCC1CCCC1 (relative stereo) [Example 2, 1-cyclopentyl-5-(1,2,3,4-tetramethyl-3-piperidinyl)-3-pentanone] | 100%
3 | 96% |  | C[C@@H]1CCN[C@@H](C)[C@]1(C)CCC(=O)CCC1CCCC1 (relative stereo) [Example 3b, 1-cyclopentyl-5-(2,3,4-trimethyl-3-piperidinyl)-3-pentanone] | 
4 | 98% |  | C[C@@H]1CCN(CC2(O)CC2)[C@@H](C)[C@]1(C)CCC(=O)CCC1CCCC1 (relative stereo) [Example 3c] | 
5 |  |  | C[C@@H]1CCN(C)[C@@H](C)[C@]1(C)CCC(=O)c1ccoc1 (relative stereo) [Example 4, 1-(3-furanyl)-3-(1.2.3.4-tetramethyl-3-piperidinyl)-1-propanone] | 78%
6 |  |  | C[C@@H]1CCN(C)[C@@H](C)[C@]1(C)CCC(=O)c1ccco1 (relative stereo) [Example 5, 1-(2-furanyl)-3-(1,2,3,4-tetramethyl-3-piperidinyl)-1-propanone] | 57%
7 | 99% | 39 ± 5 nM | CCOC(=O)CC[C@]1(C)[C@H](C)CCN(Cc2ccccc2)[C@H]1C (relative stereo) [Example 6, ethyl 3-[2,3,4-trimethyl-1-(phenylmethyl)-3-piperidine)propanoate] | 
8 | 84% |  | CC1N(CC2(O)CC2)CCC2CCCCC21CCC(=O)CCC1CCCC1 (stereo not drawn) [Example 10] | 
